# Test results from patent US20070203225A1, “METHOD OF INCREASING ENDOGENOUS ADIPONECTIN PRODUCTION AND LEPTIN PRODUCTION” (priority 2001, published 2007).
# Read-outs that look alike come from different tables or passages of the source.
# Columns and labels:
# [1] = system: isolated rat adipocytes; assay: Leptin secretion/production by isolated cultured rat adipocytes (RIA); assay type: cell-based; conditions: for effect on leptin secretion (in words): oleate/oleic acid 2 mM, low glucose
# Procedure: (§1) Cell isolation/preparation: Adipocytes are prepared from epididymal fat pads from male Sprague-Dawley rats weighing 300-600 g. Epididymal fat depots are resected from halothane anesthetized rats under aseptic conditions and adipocytes are isolated by collagenase digestion by the Rodbell method (Rodbell M. Metabolism of isolated fat cells. I. Effects of hormones on glucose metabolism and lipolysis. J Biol Chem. 1964; 239: 375-380), with minor modifications as previously described (Mueller W M, Gregoire F M, Stanhope K L, Mobbs C V, Mizuno T M, Warden C H, Stem J S, Havel P J. Evidence that glucose metabolism regulates leptin secretion from isolated adipocytes. Endocrinology 139: 551-558, 1998; Mueller W M, Stanhope K L, Gregoire F, Evans J L, Havel P J. Effects of metformin and vanadium on leptin secretion from cultured rat adipocytes. Obesity Res. 8: 530-539, 2000; Medina E A, Stanhope K L, Mizuno T M, Mobbs C V, Gregoire F, Hubbard N E, Erickson K L, Havel P J. Effects of tumor necrosis factor alpha on leptin secretion and gene expression: relationship to changes of glucose metabolism in isolated rat adipocytes. Int J Obes Relat Metab Disord. 23: 896-903, 1999.). The isolated adipocytes are then incubated for 30 minutes at 37 C before being plated and cultured on Matrigel-coated plates.
# (§2) Adipocyte Culture: Adipocytes are maintained in culture anchored to a basement membrane matrix (Matrigel, Becton Dickinson, Franklin Lakes, N.J.) or collagen from Cohesion Technologies, (Palo Alto, Calif.). Although all in vitro systems have inherent advantages and disadvantages, advantages of this system compared with cultures containing free-floating adipocytes are that the matrix simulates their normal basement membrane attachment and that the cells are maintained in close proximity to each other, allowing direct cell to cell contact. Together the cell contact and basement membrane attachment help to maintain differentiation, since adipocytes have a strong tendency to dedifferentiate in long-term (>24 h) culture. In addition, the matrix and the small amount of serum in the media both contain growth factors, which are also likely to help in maintaining cell differentiation. Furthermore, the adipocytes in this system are not exposed to toxic levels of oxygen at the interface of the media and the incubator atmosphere, as opposed to free-floating adipocytes which aggregate at the surface of the media. An advantage of the system over those containing minced adipose tissue is that all of the cells in the culture are equally exposed to the nutrients and the oxygen dissolved in the media. Thus, although clearly different from the in vivo situation, this system provides a more physiological environment than most systems for maintaining adipocytes in long-term culture.
# (§3) In culturing each suspension, Matrigel is first thawed on ice to a liquid and uniformly applied to the surface of culture dishes (300 μl Matrigel/35 mm well). After the incubation period, 150 μl of the adipocyte suspension (2:1 ratio of packed cells to media) are plated on the Matrigel or collagen matrix. Adipocytes from each suspension are thoroughly mixed with a transfer pipette before plating to insure that a similar number adipocytes with a similar size distribution are added to the control and experimental wells for each suspension. The warmth of the added cells and buffer causes the Matrigel to gel around the adipocytes, or the neutralization of the acidic pH of the collagen solution to 7.0 solidifies the collagen, and both of these techniques effectively anchor the adipocytes to the culture dish. After a 30 minute incubation at 37° C., 2 ml of warm culture medium is added. The cells are maintained in an incubator at 37° C. for 96 hours with 6% CO2. Aliquots of adipocytes from each animal are divided into wells, with the different concentrations of insulin or other agents to be tested. In each plate an appropriate control well contains adipocytes from the same animal. […]
# [2] = system: isolated rat adipocytes; assay: Glucose oxidation: incorporation of 14C-glucose into CO2 by isolated rat adipocytes; assay type: cell-based
# Procedure: Substrate Oxidation: Oxidation is measured using a modification of the method of Rodbell (Rodbell, 1964) and a modification of the cell culture system described by Bottcher and Furst (Bottcher, 1996). Briefly, adipocytes are isolated, counted and sized as previously described. Adipocytes are plated as described except they are placed in a sterile 20 ml scintillation vial instead of a well. Two ml of treatment media containing [U-^14C]-substrate (0.3 uCi/ml; glucose, fatty acids, malate, fumarate, pyruvate) is added to the vials. The vials are filled with 95% O2-5% CO2 gas and capped with rubber stoppers fitted with a hanging center well. Each well contains a 2×8 cm strip of Whatman No. 1 paper. Vials are maintained at 37° C. for 48 hr. After 48 hr, a sample of media is removed from each vial using a 4 inch, 23 gauge needle. Using another syringe and 23 gauge needle, 200 ul of sodium benzethonium is placed onto the paper strip and hanging well to capture CO2. Concentrated sulfuric acid is added to the vial in order to lyse cells and liberate all CO2 from the collagen matrix. After 24 hours, the hanging well and paper are transferred to another vial containing scintillation fluid and counted. The data are expressed as % DPM recovered as CO2 of the total DPM remaining in the media at 48 hours and as micromoles of substrate oxidized over time.
# [3] = system: isolated rat adipocytes; assay: Glucose utilization (uptake) by isolated cultured rat adipocytes; assay type: cell-based
# Procedure: as §1, §2, §3
# [4] = system: cultured rat adipocytes; assay: Adiponectin secretion by isolated cultured rat adipocytes over 96 h; assay type: cell-based; conditions: DTNB 100 μM, DCA 2 mM; 96 h culture, n=6
# Procedure: Several studies have reported that thiazolidenediones (TZDs), agonists of PPARγ, increase adiponectin expression and circulating levels in animals (Maeda, 2001; Yamauchi, 2001a; Ye, 2003). TZD (10 μM Troglitazone) stimulated of adiponectin secretion from cultured rat adipocytes from 3 different depots (n=6). Mesenteric fat produced the largest amount of adiponectin over 96 hours in culture. (FIG. 5A). Adiponectin secretion from both the control- and TZD-treated adipocytes was well correlated with the glucose utilization (control, r=0.79; p<0.001); (TZD-treated, r=0.84, p=<0.0001, FIG. 5B) showing that, similar to leptin production, glucose metabolism also is involved in the regulation of adiponectin production by adipocytes.
# Insulin increased adiponectin production from 3 different fat depots, however as in the experiments with troglitazone, the mesenteric depot produced the most adiponectin (FIG. 6B). Like leptin, both basal and insulin-stimulated adiponectin secretion was highly correlated to glucose utilization (r=0.91, p<0.0001) (FIG. 6C), and inversely related to the proportion of glucose metabolized to lactate (r=−0.81, p<0.0001) (FIG. 6D).
# Also paralleling the regulation of leptin, adiponectin secretion by isolated cultured adipocytes was increased during 96 h culture by inhibitors of PDH-K. DTNB (100 μM) increased adiponectin secretion by 40% (p<0.03, n=6, FIG. 7A). DCA (2 mM) increased adiponectin secretion by 23% (p<0.025, n=6, FIG. 7B). The increase in adiponectin induced by DTNB was highly correlated with glucose utilization (r=0.95, p<0.004). Furthermore in adipocytes transfected with antisense directed at PDH-K, adiponectin secretion was stimulated by 24.3±8.4%, p<0.05, n=7, FIG. 7C).
# as §1
# Adipocyte Culture: Adipocytes are maintained in culture anchored to a basement membrane matrix (Matrigel, Becton Dickinson, Franklin Lakes, N.J.) or collagen from Cohesion Technologies, (Palo Alto, Calif.). […]
# [5] = system: isolated rat adipocytes; assay: Lactate production and proportion of glucose anaerobically metabolized to lactate in isolated cultured rat adipocytes; assay type: cell-based
# Procedure: as §1, §2, §3
# [6] = system: isolated rat adipocytes; conditions: cited from earlier work; for effect on leptin secretion (in words): citrate
# [7] = DCA 2.0 mM + insulin 0.48 nM vs control (insulin only)
# [8] = DCA 2.0 mM + insulin 0.48 nM, isolated rat adipocytes, 96 h culture
smiles,measurement,setting,value
"CCCCCCCC/C=C\CCCCCCCC(=O)O [oleate, oleic acid]",effect on leptin secretion (in words),[1],increased
same,effect on leptin secretion (in words),[1]; listed as oleic acid,increases
same,inhibition at 2000 µM,"[2]; Rattus norvegicus, Adipocyte, oleate 2 mM, n=7",30%
same,effect on glucose oxidation (in words),"[2]; oleic acid 2 mM, low glucose",inhibits
"O=C(O)C(Cl)Cl [DCA, Dichloroacetate]",Change in Parameter: Glucose Uptake (μg) over 96 h,[3]; [7],-46 ± 57 µg
same,Glucose Uptake (μg) over 96 h,[3]; [8],1082 ± 117 µg
same,% ΔLeptin Produced over 96 h,[1]; [7],+17.6 ± 4.7%
same,% Δ[Leptin] (ng/ml) at 96 h,[1]; [7],+17.9 ± 7.9%
same,Change in Parameter: Leptin (ng) Produced over 96 h,[1]; [7],+12.9 ± 3.6 ng
same,Change in Parameter: [Leptin] (ng/ml) at 96 h,[1]; [7],+3.6 ± 1.0 ng/ml
same,Leptin (ng) Produced over 96 h,[1]; [8],88.3 ± 7.5 ng
same,[Leptin] (ng/ml) at 96 h,[1]; [8],27.0 ± 2.6 ng/mL
same,increase of leptin production/secretion,"[1]; PDH kinase inhibitors vs control: DTNB 100 μM, NEM 0.1 μM, DCA 2 mM, cultured adipocytes",20-25%
same,increase of adiponectin secretion,[4],23%
same,Change in Parameter: Glucose to Lactate (%),[5]; [7],−16.1 ± 1.3%
same,Change in Parameter: Lactate Produced (μg) over 96 h,[5]; [7],-181 ± 10 µg
same,Glucose to Lactate (%),[5]; [8],7.9 ± 0.9%
same,Lactate Produced (μg) over 96 h,[5]; [8],81 ± 4 µg
[F-].[Na+] [sodium fluoride],effect on leptin expression and secretion (in words),[6]; glycolysis suppressed with sodium fluoride,reduced
O=C(O)CC(O)(CC(=O)O)C(=O)O [Citrate],effect on leptin secretion (in words),[6]; low glucose and insulin concentration,stimulates
same,effect on leptin secretion (in words),[6]; presence of high insulin and glucose,does not affect
